Where “and” joins values, the source holds several entries; their conditions need not be identical. Equal entries are not always repeated.
How the values were obtained:
[1] = tested on: Fluc-int-UGA construct in HEK293FT cells; assay: Amino-acid identification assay (mass spectrometry); type: cell-based, human; details: 25 µM DAP
Source text: To elucidate the molecular mechanism of DAP-promoted UGA readthrough, mass spectrometry was used to identify the amino acid incorporated at the PTC position into firefly luciferase synthesized from the Fluc-int-UGA construct. […] The luciferase protein was digested with […] to generate a PTC-position-containing peptide compatible with mass spectrometry analysis. Using this approach, we found only one amino acid, tryptophan, incorporated at the PTC position in the peptide of interest (Fig. 5a).
Firefly luciferase from HEK293FT cells transfected with the Fluc-int-UGA construct was immunoprecipitated and digested with trypsin. The MS/MS spectrum of the peptide containing the PTC position and the sequence determination are shown. […] Readthrough efficiency was determined by measuring luciferase activity in HeLa cells co-transfected with the firefly luciferase construct described in Fig. 1b and with increasing amounts of an expression vector for either FTSJ1 or CTU1 (0.5, 1, or 2 µg). […] A molecular weight marker is indicated to the left of each gel. p-values (p) were calculated using Student’s t-test. […]
Sixty million HEK293FT cells were transfected with 120 µg Fluc-int-UGA construct with CaCl2 in HBSS buffer. […] The immunoprecipitate was subjected to 10% SDS–PAGE and then firefly luciferase was detected by Coomassie staining. […]

[2] = tested on: firefly luciferase (Fluc) gene with UAG nonsense codon at position 109 in HeLa cells; assay: Firefly luciferase readthrough assay, UAG PTC construct; type: cell-based, human
[3] = tested on: wild-type TP53 in HeLa cells; assay: p53 function: luciferase under promoter with two p53-responsive elements, HeLa; type: cell-based, human
[4] = DAP stability assay in human liver S9; type: in vitro ADME; details: pooled human liver S9 fraction, 37 °C, read-out: Recovery of the molecule after incubation
Protocol: The S9 mix was composed of 5 mM glucose-6-phosphate (Ref. G7879, Batch no. SLBP253V, Sigma, France), 33.5 mM KCl (Ref. P3911, Batch no. SLBQ3328V, Sigma, France), 8 mM MgCl2 (Ref. M8266, Batch no. SLBK9099V, Sigma, France), 4 mM β-NADP (Ref. N5755, Batch no. SLBJ7935V, Sigma, France), and 100 mM NaH2PO4 (Ref. S3139, Batch no. BCBT3558, Sigma, France) in ultrapure water (Ref. BE51200, Batch no. BCBT3558, Lonza, France). Seventy-five microliters of human liver S9 fraction (Pooled Human Liver S9, 20 mg/ml, Ref. 452961, BD, France) was then added to 1380 µl of this S9 mix. The solution was warmed for 15 min at 37 °C in a thermostated water bath. The final protein concentration was 1 mg/ml after addition of working solutions.
The samples were then centrifuged and directly analyzed by LC–MS. The extraction efficiency was estimated at 97.2%. After extraction, the collected supernatants were directly injected into the HPLC system for analysis. Analysis was performed by MS to allow detection of potential metabolite(s).

FTSJ1 = target: T1, FTSJ1 (Homo sapiens, UniProt Q9UET6); assay: DAP affinity column chromatography; type: binding; details: HeLa cell extract
T1 construct: host or cells: HeLa
T1 sequence (Q9UET6 1-329): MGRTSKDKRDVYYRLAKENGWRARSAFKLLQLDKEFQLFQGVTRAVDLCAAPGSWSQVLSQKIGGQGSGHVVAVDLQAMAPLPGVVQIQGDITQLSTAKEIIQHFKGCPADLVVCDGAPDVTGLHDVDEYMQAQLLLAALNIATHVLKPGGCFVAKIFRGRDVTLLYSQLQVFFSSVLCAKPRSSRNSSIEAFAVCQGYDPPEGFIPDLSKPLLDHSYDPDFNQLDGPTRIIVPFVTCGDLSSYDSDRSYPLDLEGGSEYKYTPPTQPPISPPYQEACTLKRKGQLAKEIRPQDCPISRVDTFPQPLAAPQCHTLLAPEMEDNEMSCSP
Source text: Firefly luciferase from HEK293FT cells transfected with the Fluc-int-UGA construct was immunoprecipitated and digested with trypsin. The MS/MS spectrum of the peptide containing the PTC position and the sequence determination are shown. The upper red and blue sequences indicate the amino acids validated, respectively, by detection of Nter and Cter peptide fragments (b and y ion series). Peptide fragments y6 and y7 clearly identify tryptophan (W) at the PTC position. The black peaks correspond to non-attributed mass-to-charge ratio (m/z) values. […] Readthrough efficiency was determined by measuring luciferase activity in HeLa cells co-transfected with the firefly luciferase construct described in Fig. 1b and with increasing amounts of an expression vector for either FTSJ1 or CTU1 (0.5, 1, or 2 µg). The empty expression vector (E.v.) was used as control. […] The experiment was performed twice and the results of both experiments (Exp1 and Exp2) are shown. c Western blot analysis of FTSJ1 and CTU1. d 2′-O-methylation analysis of tRNA^Trp, tRNA^SER, and tRNA^GLN by RiboMethSeq. […] A molecular weight marker is indicated to the left of each gel. p-values (p) were calculated using Student’s t-test. Source data are provided as a Source Data file.
The eluate was analyzed by western blotting for the presence of various proteins, including FTSJ1. […]

Nc1nc(N)c2[nH]cnc2n1 [DAP, 2,6-diaminopurine]
Amino acid incorporated at the PTC position [1]: tryptophan | Luciferase activity, UAG PTC ([2]; DAP 3.75µM, average of 2 experiments): 366.5±43 and 366.5 | Luciferase activity, UAG PTC ([2]; DAP 3.75µM, experiment 1): 336 | Luciferase activity, UAG PTC ([2]; DAP 3.75µM, experiment 2): 397 | Luciferase activity, UAG PTC ([2]; DAP 37.5µM, average of 2 experiments): 451.5±145 and 451.5 | Luciferase activity, UAG PTC ([2]; DAP 37.5µM, experiment 1): 349 | Luciferase activity, UAG PTC ([2]; DAP 37.5µM, experiment 2): 554 | Luciferase activity, p53-responsive promoter construct (DMSO = 1) ([3]; 6.25µM, FL922): 0.8852 | Luciferase activity, p53-responsive promoter construct (DMSO = 1) ([3]; 6.25µM, FL932): 0.9803 | Luciferase activity, p53-responsive promoter construct (DMSO = 1) ([3]; 6.25µM, FL934): 0.8382 | Luciferase activity, p53-responsive promoter construct (DMSO = 1) ([3]; 6.25µM, average): 0.9012 | Luciferase activity, p53-responsive promoter construct (DMSO = 1) ([3]; 25µM, FL922): 0.7844 | Luciferase activity, p53-responsive promoter construct (DMSO = 1) ([3]; 25µM, FL932): 0.8921 | Luciferase activity, p53-responsive promoter construct (DMSO = 1) ([3]; 25µM, FL934): 1.092 | Luciferase activity, p53-responsive promoter construct (DMSO = 1) ([3]; 25µM, average): 0.9228 | Luciferase activity under p53-responsive promoter, in words ([3]; wild-type TP53): failure of DAP to cause a luciferase activity increase | recovery at 4 h, 300 µM [4]: > 80% | Binding to FTSJ1 (affinity column, western blot of eluate) (FTSJ1): binds to FTSJ1

CN[C@@H]1[C@@H](O)[C@@H](O[C@@H]2[C@@H](O)[C@H](O[C@H]3O[C@H]([C@@H](C)O)[C@@H](O)[C@H](O)[C@H]3N)[C@@H](N)C[C@H]2N)OC[C@]1(C)O [G418, reference compound]
Luciferase activity, UAG PTC ([2]; G418 1mg/ml, average of 2 experiments): 2275.5±805 and 2275.5 | Luciferase activity, UAG PTC ([2]; G418 1mg/ml, experiment 1): 2845 | Luciferase activity, UAG PTC ([2]; G418 1mg/ml, experiment 2): 1706 | Luciferase activity, p53-responsive promoter construct (DMSO = 1) ([3]; 25µM, FL922): 0.9453 | Luciferase activity, p53-responsive promoter construct (DMSO = 1) ([3]; 25µM, FL932): 0.904 | Luciferase activity, p53-responsive promoter construct (DMSO = 1) ([3]; 25µM, FL934): 1.071 | Luciferase activity, p53-responsive promoter construct (DMSO = 1) ([3]; 25µM, average): 0.9735 | Luciferase activity, p53-responsive promoter construct (DMSO = 1) ([3]; 600µM, FL922): 0.9542 | Luciferase activity, p53-responsive promoter construct (DMSO = 1) ([3]; 600µM, FL932): 0.6225 | Luciferase activity, p53-responsive promoter construct (DMSO = 1) ([3]; 600µM, FL934): 1.017 | Luciferase activity, p53-responsive promoter construct (DMSO = 1) ([3]; 600µM, average): 0.8645

— article PMC7083880 (Nature Communications, 2020)
